Reference: ChEMBL document CHEMBL1201862, “PubChem BioAssay data set” (2004)
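Results reflect a 48-hour exposure of cells in 96-well plates to compound at five concentrations. Abbreviation: GI50, concentration required for 50% inhibition of growth.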 Active and inactive are the calls of the source. Rule as the data show it: active = GI50 up to about 1.1 µM and inactive = higher.

Tests used:
Experiment in all cases: inhibition of tumour cell growth, NCI panel, 48 h
[1] = tested on: 786-0
[2] = tested on: A498
[3] = tested on: A549
[4] = tested on: ACHN
[5] = tested on: BT-549
[6] = tested on: COLO 205
[7] = tested on: EKVX
[8] = tested on: HCC 2998
[9] = tested on: HCT-116
[10] = tested on: HCT-15
[11] = tested on: HL-60
[12] = tested on: HOP-62
[13] = tested on: HOP-92
[14] = tested on: HT-29
[15] = tested on: Hs-578T
[16] = tested on: IGROV-1
[17] = tested on: K562
[18] = tested on: KM12
[19] = tested on: M14
[20] = tested on: MCF7
[21] = tested on: MDA-MB-231
[22] = tested on: MDA-N
[23] = tested on: MOLT-4
[24] = tested on: Malme-3M
[25] = tested on: NCI-H226
[26] = tested on: NCI-H23
[27] = tested on: NCI-H460
[28] = tested on: OVCAR-5
[29] = tested on: OVCAR-8
[30] = tested on: PC-3
[31] = tested on: RPMI-8226
[32] = tested on: RXF 393
[33] = tested on: SK-MEL-28
[34] = tested on: SK-MEL-2
[35] = tested on: SK-MEL-5
[36] = tested on: SN12C
[37] = tested on: SNB-19
[38] = tested on: SNB-75
[39] = tested on: SR
[40] = tested on: SW-620
[41] = tested on: T47D
[42] = tested on: TK-10
[43] = tested on: U-251
[44] = tested on: UACC-257
[45] = tested on: UO-31
[46] = tested on: CAKI-1
[47] = tested on: CCRF-CEM
[48] = tested on: DU-145
[49] = tested on: LOX IMVI
[50] = tested on: MDA-MB-435
[51] = tested on: NCI-H522
[52] = tested on: NCI/ADR-RES
[53] = tested on: OVCAR-3
[54] = tested on: OVCAR-4
[55] = tested on: SF-268
[56] = tested on: SF-295
[57] = tested on: SF-539
[58] = tested on: SK-OV-3
[59] = tested on: UACC-62

## c1ccc(/N=C2\C(=N/c3ccccc3)N(C3CCCCC3)/C(=N\C3CCCCC3)N2c2ccccc2)cc1
[1]
  GI50: > 100 µM (inactive)
[2]
  GI50: > 100 µM (inactive)
[3]
  GI50: > 100 µM (inactive)
[4]
  GI50: > 100 µM (inactive)
[5]
  GI50: > 100 µM (inactive)
[6]
  GI50: > 100 µM (inactive)
[7]
  GI50: > 100 µM (inactive)
[8]
  GI50: > 100 µM (inactive)
[9]
  GI50: > 100 µM (inactive)
[10]
  GI50: > 100 µM
[11]
  GI50: > 100 µM (inactive)
[12]
  GI50: > 100 µM (inactive)
[13]
  GI50: > 100 µM (inactive)
[14]
  GI50: > 100 µM (inactive)
[15]
  GI50: > 100 µM (inactive)
[16]
  GI50: > 100 µM (inactive)
[17]
  GI50: > 100 µM (inactive)
[18]
  GI50: > 100 µM (inactive)
[19]
  GI50: > 100 µM (inactive)
[20]
  GI50: > 100 µM (inactive)
[21]
  GI50: > 100 µM (inactive)
[22]
  GI50: > 100 µM (inactive)
[23]
  GI50: > 100 µM (inactive)
[24]
  GI50: > 100 µM (inactive)
[25]
  GI50: > 100 µM (inactive)
[26]
  GI50: > 100 µM (inactive)
[27]
  GI50: > 100 µM (inactive)
[28]
  GI50: > 100 µM (inactive)
[29]
  GI50: > 100 µM (inactive)
[30]
  GI50: > 100 µM (inactive)
[31]
  GI50: > 100 µM (inactive)
[32]
  GI50: > 100 µM (inactive)
[33]
  GI50: > 100 µM (inactive)
[34]
  GI50: > 100 µM (inactive)
[35]
  GI50: > 100 µM (inactive)
[36]
  GI50: > 10 µM (inactive)
[37]
  GI50: > 100 µM (inactive)
[38]
  GI50: > 100 µM (inactive)
[39]
  GI50: > 100 µM (inactive)
[40]
  GI50: > 100 µM (inactive)
[41]
  GI50: 49.9 µM (inactive)
[42]
  GI50: > 100 µM (inactive)
[43]
  GI50: > 100 µM (inactive)
[44]
  GI50: > 100 µM (inactive)
[45]
  GI50: > 100 µM (inactive)

## O=C(CCCn1ccnc1[N+](=O)[O-])NCCn1cnc([N+](=O)[O-])n1
[1]
  GI50: > 100 µM (inactive)
[2]
  GI50: > 100 µM (inactive)
[3]
  GI50: > 100 µM (inactive)
[4]
  GI50: > 100 µM (inactive)
[5]
  GI50: > 100 µM (inactive)
[46]
  GI50: > 100 µM (inactive)
[47]
  GI50: > 100 µM (inactive)
[6]
  GI50: > 100 µM (inactive)
[48]
  GI50: > 100 µM (inactive)
[9]
  GI50: > 100 µM (inactive)
[10]
  GI50: > 100 µM
[11]
  GI50: > 100 µM (inactive)
[12]
  GI50: > 100 µM (inactive)
[13]
  GI50: > 100 µM (inactive)
[14]
  GI50: > 100 µM (inactive)
[15]
  GI50: > 100 µM (inactive)
[16]
  GI50: > 100 µM (inactive)
[17]
  GI50: > 100 µM (inactive)
[18]
  GI50: > 100 µM (inactive)
[49]
  GI50: > 100 µM (inactive)
[19]
  GI50: > 100 µM (inactive)
[20]
  GI50: > 100 µM (inactive)
[50]
  GI50: > 100 µM (inactive)
[22]
  GI50: > 100 µM (inactive)
[23]
  GI50: > 100 µM (inactive)
[24]
  GI50: > 100 µM (inactive)
[25]
  GI50: > 100 µM (inactive)
[26]
  GI50: > 100 µM (inactive)
[27]
  GI50: > 100 µM (inactive)
[51]
  GI50: > 100 µM (inactive)
[52]
  GI50: > 100 µM (inactive)
[53]
  GI50: > 100 µM (inactive)
[54]
  GI50: > 100 µM (inactive)
[28]
  GI50: > 100 µM (inactive)
[29]
  GI50: > 100 µM (inactive)
[30]
  GI50: > 100 µM (inactive)
[31]
  GI50: > 100 µM (inactive)
[32]
  GI50: > 100 µM (inactive)
[55]
  GI50: > 100 µM (inactive)
[56]
  GI50: > 100 µM (inactive)
[57]
  GI50: > 100 µM (inactive)
[33]
  GI50: > 100 µM (inactive)
[34]
  GI50: > 100 µM (inactive)
[35]
  GI50: > 100 µM (inactive)
[58]
  GI50: > 100 µM (inactive)
[36]
  GI50: > 100 µM (inactive)
[38]
  GI50: > 100 µM (inactive)
[39]
  GI50: > 100 µM (inactive)
[40]
  GI50: > 100 µM (inactive)
[41]
  GI50: > 100 µM (inactive)
[42]
  GI50: > 100 µM (inactive)
[43]
  GI50: > 100 µM (inactive)
[44]
  GI50: > 100 µM (inactive)
[59]
  GI50: > 100 µM (inactive)
[45]
  GI50: > 100 µM (inactive)
